The source made the active and inactive calls. The rule behind the calls is not given here.

The test system of this assay is Broad 7084-01 inhibitor HTS, set 2. In words: single-concentration hits, screen 7084 set 2 (AID 977613).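 Note: host cells are infected with parasite promastigotes that become internalized.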
For the compound `CC=Cc1ccc2n(c1=O)C[C@H]1[C@H](CO)[C@@H](C(=O)N[C@@H](C)c3ccccc3)N(C(=O)c3cnccn3)[C@@H]21` (mixture of isomers), the active concentration was > 10 µM (inactive).
Under `O=C(NC1Cc2ccccc2C1)[C@H]1[C@H](CO)[C@H]2Cn3c(cccc3=O)[C@H]2N1C(=O)c1cnccn1` stands > 10 µM (inactive); under `CC(C)NC(=O)N1CC[C@@H]2[C@H]1c1cc(Br)ccc1N(C)[C@@H]2CO`, > 10 µM (inactive); under `Cn1cnc(CCNC(=O)C[C@@H]2CC[C@H]3[C@@H](COC[C@H](O)CN3C(=O)C3CC3)O2)c1`, > 10 µM (inactive).
For `N#C[C@@H]1[C@@H](c2ccccc2C2=CCCCC2)[C@@H](CO)N1C(=O)c1cccc(F)c1` the value was > 10 µM (inactive).
For `CN1C[C@H](O)COC[C@@H]2O[C@H](CC(=O)NC3CCCC3)CC[C@H]21` the value was > 10 µM (inactive); for `O=C(c1cnccn1)N1CC(=O)N2[C@H](CO)[C@@H](c3ccc(C#CC4CC4)cc3)[C@H]2C1`, > 10 µM (inactive); for `N#C[C@H]1[C@H](c2ccccc2C2=CCCCC2)[C@H](CO)N1C(=O)c1cccc(F)c1`, > 10 µM (inactive).
Regarding `O=C(c1ccccc1)N1[C@H](CO)[C@H](c2ccccc2)C12CN(Cc1nccs1)C2`, the active concentration is > 10 µM (inactive).
For `C/C=C/c1ccc([C@@H]2[C@H]3CN(Cc4ccc(F)cc4)CC(=O)N3[C@H]2CO)cc1` the value was > 10 µM (inactive).
Under `O=C(C1CCCCC1)N1CC(=O)N2[C@H](CO)[C@@H](c3ccc(-c4ccccc4F)cc3)[C@@H]2C1` stands > 10 µM (inactive); under `COC(=O)[C@@H]1[C@@H](CO)[C@@H]2Cn3c(cccc3=O)[C@@H]2N1CC1CCOCC1`, > 10 µM (inactive).
For `CN1[C@@H]2CN(C(=O)C3CCCCC3)c3ccccc3[C@@H]2[C@@H]1CO` the value was > 10 µM (inactive).
In the case of `O=C(c1ccccc1F)N1CC[C@H]2[C@H](CO)Nc3ccc(Br)cc3[C@H]21`, the active concentration is > 10 µM (inactive).
As to `C[C@H](O)C#Cc1ccc([C@H]2[C@@H](CO)N3CCCCN(C(=O)c4ccc5c(c4)OCO5)C[C@@H]23)cc1`, the active concentration is > 10 µM (inactive).
Regarding `CCS(=O)(=O)Nc1ccc2c(c1)C(=O)N(C)[C@H]1CC[C@@H](CC(=O)NCCOC)O[C@H]1CO2`, the active concentration was > 10 µM (inactive).
For `COc1cccc(NC(=O)Nc2ccc3c(c2)C(=O)N(C)[C@H]2CC[C@H](CC(=O)NCCc4ccccc4)O[C@@H]2CO3)c1` the value was > 10 µM (inactive).
As to `CN1CCCCN2[C@H](CO)[C@@H](c3ccc(-c4ccc(F)cc4)cc3)[C@@H]2C1`, the active concentration is > 10 µM (inactive).
For `COc1ccc(-c2ccc([C@@H]3[C@H]4CN(C(=O)Cc5ccncc5)CCCCN4[C@H]3CO)cc2)cc1` the value was > 10 µM (inactive); for `Cc1ccc(-c2ccccc2[C@H]2[C@@H](C#N)N(c3ncc(-c4ccccc4)s3)[C@@H]2CO)cc1`, > 10 µM (inactive).
Under `CN1CCN(C(=O)C[C@@H]2CC[C@@H]3[C@H](COC[C@@H](O)CN3CC3CC3)O2)CC1` stands > 10 µM (inactive).
Under `O=C(c1cnccn1)N1CC(=O)N2[C@@H](CO)[C@H](c3ccc(C#CC4CC4)cc3)[C@@H]2C1` stands > 10 µM (inactive); under `COc1ccc2c3c(n(C)c2c1)[C@H](CO)N(C(=O)Nc1ccc(F)cc1)CC31CN(C(=O)Cc2ccncc2)C1`, > 10 µM (inactive).
In the case of `CCC(=O)N1[C@@H]2Cn3c(ccc(-c4ccc(F)cc4)c3=O)[C@H]1[C@@H](C(=O)OC)[C@@H]2CO`, the active concentration is > 10 µM (inactive).
Turning to `O=C(c1ccccc1)N1CC(=O)N2[C@H](CO)[C@@H](c3ccc(-c4ccccc4)cc3)[C@H]2C1`, the active concentration is > 10 µM (inactive).
For `CCCNC(=O)N1[C@H](C#N)[C@H](c2ccccc2-c2ccccc2F)[C@@H]1CO` the value was > 10 µM (inactive); for `COc1cccc(C(=O)Nc2ccc3c(c2)C(=O)N(C)[C@H]2CC[C@@H](CC(=O)NCCCN4CCOCC4)O[C@@H]2CO3)c1`, > 10 µM (inactive).
Turning to `CC=Cc1ccc2n(c1=O)C[C@H]1[C@H](CO)[C@@H](C(=O)Nc3ccccc3)N(CC3CCCC3)[C@@H]21` (mixture of isomers), the active concentration was > 10 µM (inactive).
Turning to `CCCNC(=O)N1CC(=O)N2[C@H](C1)[C@H](c1ccc(-c3ccc(F)cc3)cc1)[C@@H]2CO`, the active concentration is > 10 µM (inactive).
Under `COc1cccc(-c2ccc3c(c2)[C@H]2[C@H](CCN2S(=O)(=O)c2ccccc2C)[C@H](CO)N3)c1` stands > 10 µM (inactive); under `Cc1cccc(S(=O)(=O)N2CC[C@H]3[C@@H](CO)N(C)c4ccc(-c5ccccc5F)cc4[C@H]32)c1`, > 10 µM (inactive); under `COCC(=O)N1[C@H](C#N)[C@H](c2ccccc2-c2ccc(C)cc2)[C@@H]1CO`, > 10 µM (inactive).
Regarding `O=C(Cc1ccccn1)N1[C@H](CO)[C@@H]2c3ccccc3NC[C@@H]21`, the active concentration was > 10 µM (inactive).
For `O=C(NC1CCCCC1)N1CC2(C1)[C@H](c1ccccc1)[C@H](CO)N2CC1CCCC1` the value was > 10 µM (inactive).
For `COc1ccc(NC(=O)N2CC(=O)N3[C@H](CO)[C@H](c4ccc(Br)cc4)[C@H]3C2)cc1` the value was > 10 µM (inactive); for `O=C(NCC(F)(F)F)[C@@H]1[C@@H](CO)[C@@H]2Cn3c(cccc3=O)[C@H]1N2CC1CCOCC1`, > 10 µM (inactive).
Turning to `C/C=C/c1ccc([C@H]2[C@@H](CO)N3C(=O)CN(Cc4ccc(F)cc4)C[C@@H]23)cc1`, the active concentration is > 10 µM (inactive).
For `CCCC#Cc1ccc([C@@H]2[C@@H](CO)N3C(=O)CN(S(=O)(=O)c4ccccc4C)C[C@H]23)cc1` the value was > 10 µM (inactive); for `COc1ccc2c3c([nH]c2c1)[C@@H](CO)N(C(=O)Nc1ccc(F)cc1)CC31CN(S(=O)(=O)c2ccc(C)cc2)C1`, > 10 µM (inactive); for `O=C(C[C@H]1CC[C@H]2[C@@H](COC[C@H](O)CN2CCC(F)(F)F)O1)NCC1CC1`, > 10 µM (inactive).
With `O=C(c1cccc(F)c1)N1CCCCN2[C@H](C1)[C@@H](c1ccc(C#CC3(O)CCCC3)cc1)[C@@H]2CO`, the active concentration is > 10 µM (inactive).
Under `COc1ccccc1-c1ccc2n(c1=O)C[C@H]1[C@H](CO)[C@@H](C(=O)NCc3ccccc3Cl)N[C@@H]21` stands > 10 µM (inactive); under `CN1C(=O)c2cc(NC(=O)c3cnccn3)ccc2OC[C@@H]2O[C@H](CC(=O)NCC3CCCCC3)CC[C@H]21`, > 10 µM (inactive).
With `C/C=C/c1ccc([C@@H]2[C@@H](CO)N3C(=O)CN(Cc4ccc(F)cc4)C[C@@H]23)cc1`, the active concentration is > 10 µM (inactive).
Under `COc1cc(CN2CC3(CN(C(=O)CN4CCOCC4)C3)c3c(n(C)c4cc(OC)ccc34)[C@@H]2CO)cc(OC)c1` stands > 10 µM (inactive); under `O=S(=O)(c1ccccc1)N1CC[C@@H]2[C@H]1c1cc(Br)ccc1N[C@@H]2CO`, > 10 µM (inactive); under `CC(C)CC#Cc1ccc([C@@H]2[C@H](CO)N3C(=O)CN(C(=O)c4ccccn4)C[C@@H]23)cc1`, > 10 µM (inactive).
Under `CN1C[C@@H]2[C@H](c3ccccc31)[C@H](CO)N2Cc1ccccc1Cl` stands > 10 µM (inactive); under `CCCNC(=O)N1CC2(C1)[C@@H](c1ccccc1)[C@@H](CO)N2Cc1ccccn1`, > 10 µM (inactive); under `O=C(Cc1ccccc1)N1C[C@@H]2[C@H](c3ccccc31)[C@@H](CO)N2C(=O)c1cccc(F)c1`, > 10 µM (inactive).
Under `O=C(CC1CC1)N1CC(=O)N2[C@H](CO)[C@H](c3ccc(C#Cc4cccc(F)c4)cc3)[C@@H]2C1` stands > 10 µM (inactive); under `N#C[C@H]1[C@H](c2ccccc2-c2ccccc2F)[C@H](CO)N1C(=O)C1CCC1`, > 10 µM (inactive); under `O=C(C[C@H]1CC[C@H]2[C@@H](COC[C@H](O)CN2S(=O)(=O)c2cccc(Cl)c2)O1)Nc1ccc(-c2ccccc2)cc1`, > 10 µM (inactive).
For `CN1[C@H](CO)[C@@H]2c3ccccc3N(C(=O)c3ccc(F)cc3)C[C@@H]21`, the active concentration was > 10 µM (inactive).
Turning to `O=C(c1ccncc1)N1C[C@H]2[C@@H](c3ccccc31)[C@@H](CO)N2Cc1ccccc1F`, the active concentration was > 10 µM (inactive).
For `COc1ccc2c3c(n(C)c2c1)[C@H](CO)N(CC1CCOCC1)CC31CCN(C(=O)CN(C)C)CC1` the value was > 10 µM (inactive); for `O=C(C[C@H]1CC[C@H]2[C@@H](COC[C@H](O)CN2C(=O)c2cccnc2)O1)NCc1ccccc1`, > 10 µM (inactive); for `OC[C@H]1[C@@H](c2ccc(C#CC3(O)CCCC3)cc2)[C@H]2CN(Cc3cncnc3)CCCCN21`, > 10 µM (inactive).
For `CCCNC(=O)N1[C@@H](CO)[C@@H](c2ccccc2)C12CN(C(=O)C1CCCCC1)C2` the value was > 10 µM (inactive); for `O=C(C[C@@H]1CC[C@@H]2[C@H](COC[C@@H](O)CN2C(=O)C2CC2)O1)NCc1ccncc1`, > 10 µM (inactive).
For `CN1C(=O)c2cc(NC(=O)c3cnccn3)ccc2OC[C@@H]2O[C@@H](CC(=O)NCC3CCCCC3)CC[C@H]21` the value was > 10 µM (inactive); for `O=C(C[C@H]1CC[C@@H]2[C@H](COC[C@H](O)CN2Cc2ccc(Cl)cc2)O1)NCc1ccccc1Cl`, > 10 µM (inactive); for `CC(=O)N1CC[C@@H]2[C@@H](CO)N(C)c3ccc(-c4ccc(C#N)cc4)cc3[C@@H]21`, > 10 µM (inactive).
Turning to `O=C(C1CCOCC1)N1CC(=O)N2[C@H](C1)[C@H](c1ccc(-c3cccnc3)cc1)[C@@H]2CO`, the active concentration is > 10 µM (inactive).
Under `O=C(Nc1ccc(F)cc1)N1[C@@H]2CNc3ccccc3[C@@H]2[C@@H]1CO` stands > 10 µM (inactive).
